Among the data in PubChem BioAssay (NCI) are TGI and GI50 values, retold here.

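Growth conditions: 96-well plates. Treatment: test compound, 48 hours, 5 concentrations. Analysis: linear interpolation between bracketing concentrations; unreached endpoints set to highest concentration. At the GI50, growth is halved. TGI: concentration producing complete growth inhibition.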

Test systems include ACHN renal; SK-MEL-28 melanoma; NCI/ADR-RES ovarian; UO-31 renal; MDA-MB-231 breast; OVCAR-4 ovarian; PC-3 prostate; A498 renal.
Assay in all cases: growth of human tumour cells (NCI), 48 h

As to `c1ccc(CN2CCC3(CC2)SSC2(CCN(Cc4ccccc4)CC2)S3)cc1`, the TGI with ACHN renal, in the assay on SK-MEL-28 melanoma, in the assay on NCI/ADR-RES ovarian, with UO-31 renal, in the assay with MDA-MB-231 breast and in the assay with OVCAR-4 ovarian was more than 100 µM in each case. The same molecule displayed a TGI with PC-3 prostate of more than 100 µM.
As to `COc1cccc2c1ccc1nc3cccc(C(=O)N[C@H](C)CN(C)C)c3nc12`, the GI50 was 0.0426 µM in the assay with ACHN renal; 0.221 µM with SK-MEL-28 melanoma; 0.0793 µM in the assay on A498 renal; 0.0721 µM in the assay with NCI/ADR-RES ovarian; 0.178 µM with MDA-MB-231 breast; 0.0927 µM in the assay with OVCAR-4 ovarian. In the assay with PC-3 prostate, the GI50 was 0.0819 µM. In addition, the TGI in the assay with ACHN renal was found to be 10.6 µM; in the assay with SK-MEL-28 melanoma it was 1.51 µM; in the assay with A498 renal it was 0.235 µM; in the assay on NCI/ADR-RES ovarian, 0.554 µM; in the assay on MDA-MB-231 breast it was 3.25 µM; in the assay on OVCAR-4 ovarian it was 0.894 µM. For the same molecule, in the assay on PC-3 prostate, the TGI turned out to be 2.13 µM.
As to `OCC(O)C(Cl)CCl` (centres undefined), the TGI with ACHN renal, in the assay on SK-MEL-28 melanoma, in the assay on NCI/ADR-RES ovarian, with UO-31 renal, in the assay on MDA-MB-231 breast and in the assay on OVCAR-4 ovarian was more than 100 µM throughout. Also, in the assay with PC-3 prostate, the TGI is more than 100 µM.
Consider `CC1CC2OC(=O)C(C)C2CC2(C)C(OC3OC(CO)C(O)C(O)C3O)OCCC12` (centres undefined), for which the TGI in the assay with ACHN renal, in the assay on SK-MEL-28 melanoma, with A498 renal, with NCI/ADR-RES ovarian, in the assay with MDA-MB-231 breast and in the assay on OVCAR-4 ovarian was more than 100 µM throughout. The same molecule registered a TGI with PC-3 prostate of more than 100 µM.
`Cc1cc(C(=C2C=CC(=Nc3ccccc3)C=C2)c2ccc(Nc3ccccc3)cc2)ccc1N`: the GI50 in the assay on ACHN renal was 0.377 µM; in the assay on SK-MEL-28 melanoma, 0.368 µM; with A498 renal it was 0.543 µM; in the assay with NCI/ADR-RES ovarian, 0.643 µM; in the assay on UO-31 renal it was 0.305 µM; with MDA-MB-231 breast, 0.363 µM. The GI50 in the assay with OVCAR-4 ovarian was 0.355 µM. The TGI was 1.31 µM in the assay on ACHN renal; 1.4 µM in the assay with SK-MEL-28 melanoma; 1.86 µM with A498 renal; 2.22 µM in the assay on NCI/ADR-RES ovarian; 1.38 µM in the assay with UO-31 renal; 1.34 µM with MDA-MB-231 breast. Moreover, the TGI in the assay on OVCAR-4 ovarian amounted to 1.31 µM.
For `O=c1cc(-c2ccccc2F)[nH]c2ccc(N3CCCC3)cc12`, the TGI in the assay with ACHN renal was more than 100 µM; in the assay with SK-MEL-28 melanoma, more than 100 µM; in the assay with A498 renal it was more than 100 µM; in the assay with MDA-MB-231 breast, more than 100 µM; with OVCAR-4 ovarian it was 55.3 µM; in the assay on PC-3 prostate, more than 100 µM. The GI50 was 82.3 µM with SK-MEL-28 melanoma, 7.32 µM in the assay with A498 renal, less than 0.001 µM in the assay with NCI/ADR-RES ovarian and more than 100 µM in the assay with MDA-MB-231 breast.
`CCOC(=O)c1c2c(n(Cc3ccc(Cl)cc3Cl)c1C)-c1nc[nH]c1C(=O)C2=O`: the GI50 in the assay on ACHN renal is 4.45 µM; in the assay on SK-MEL-28 melanoma, 15.6 µM; in the assay with A498 renal, 19.7 µM; with UO-31 renal, 12.4 µM; in the assay on MDA-MB-231 breast, 2.24 µM; in the assay on OVCAR-4 ovarian, 6.58 µM. Besides, the TGI was determined as 16.1 µM in the assay on ACHN renal; 28.9 µM in the assay on SK-MEL-28 melanoma; 36.1 µM in the assay on A498 renal; 49.5 µM with UO-31 renal; 5.04 µM with MDA-MB-231 breast; 19.3 µM in the assay with OVCAR-4 ovarian.
As to `NC(=O)c1ccc(I)c(N=O)c1`, the GI50 in the assay with ACHN renal was 30.8 µM; in the assay on SK-MEL-28 melanoma, 46.9 µM; in the assay with NCI/ADR-RES ovarian, 44.9 µM; in the assay with UO-31 renal, 19.9 µM; with MDA-MB-231 breast it was 35.5 µM; in the assay with OVCAR-4 ovarian it was 17.7 µM. Moreover, the TGI in the assay with ACHN renal was more than 100 µM; in the assay on SK-MEL-28 melanoma it was more than 100 µM; in the assay with NCI/ADR-RES ovarian, more than 100 µM; in the assay on UO-31 renal, 57.8 µM; in the assay on MDA-MB-231 breast, more than 100 µM; in the assay with OVCAR-4 ovarian, 43.5 µM.
Turning to `O=C(O/C(=C(/N=Nc1ccccc1)c1ccccc1)c1ccccc1)c1ccccc1`, the TGI in the assay on ACHN renal, with SK-MEL-28 melanoma, in the assay with UO-31 renal and in the assay on OVCAR-4 ovarian was more than 100 µM in each case.
For `CCC(C)[C@H]1O[C@]2(C=C[C@@H]1C)C[C@@H]1C[C@@H](C/C=C(\C)[C@@H](OC3C[C@H](OC)C(O[C@H]4C[C@H](OC)[C@@H](O)[C@H](C)O4)[C@H](C)O3)[C@@H](C)/C=C/C=C3\CO[C@@H]4[C@H](O)C(C)=C[C@@H](C(=O)O1)[C@]34O)O2` (some centres undefined), the GI50 in the assay with ACHN renal is 1.72 µM; with SK-MEL-28 melanoma it was 2.08 µM; in the assay on A498 renal, 0.5 µM; in the assay with NCI/ADR-RES ovarian, 1.41 µM; in the assay with UO-31 renal it was 0.807 µM; with MDA-MB-231 breast it was 1.42 µM. Moreover, the GI50 with OVCAR-4 ovarian was 1.67 µM. The TGI was found to be 5.63 µM with ACHN renal; 7.23 µM with SK-MEL-28 melanoma; 1.14 µM in the assay with A498 renal; 4.77 µM in the assay on NCI/ADR-RES ovarian; 1.73 µM in the assay on UO-31 renal; 5.81 µM with MDA-MB-231 breast. The TGI in the assay on OVCAR-4 ovarian is 4.76 µM.
With `CCn1cc(C(=O)N/N=C/c2ccccc2)c(=O)c2cc(F)c(N3CCNC(C)C3)c(F)c21` (centres undefined), the GI50 in the assay on ACHN renal is 1.73 µM; in the assay on SK-MEL-28 melanoma, 1.78 µM; in the assay on A498 renal, 1.9 µM; in the assay on NCI/ADR-RES ovarian it was 1.76 µM; with UO-31 renal, 1.55 µM; in the assay on OVCAR-4 ovarian it was 2.04 µM. In the assay with PC-3 prostate, the GI50 was 1.6 µM. In addition, the TGI is 3.12 µM in the assay on ACHN renal; 3.19 µM in the assay on SK-MEL-28 melanoma; 3.38 µM in the assay with A498 renal; 3.46 µM in the assay on NCI/ADR-RES ovarian; 2.89 µM with UO-31 renal; 3.62 µM with OVCAR-4 ovarian. The same molecule displayed a TGI in the assay on PC-3 prostate of 3.01 µM.
Take `COc1ccc(/C=C/C(=O)c2ccc(O)c(CN3CCN(c4cc5c(cc4F)c(=O)c(C(=O)O)cn5C4CC4)CC3)c2)cc1`: the GI50 in the assay on ACHN renal was 2.18 µM; in the assay on SK-MEL-28 melanoma, 1.72 µM; in the assay with A498 renal it was 1.34 µM; in the assay with NCI/ADR-RES ovarian, 4.44 µM; with MDA-MB-231 breast, 2.19 µM; in the assay with OVCAR-4 ovarian, 54.9 µM. The GI50 with PC-3 prostate is 1.39 µM. Also, the TGI was 17.9 µM in the assay with ACHN renal; more than 100 µM in the assay on SK-MEL-28 melanoma; 5.54 µM in the assay on A498 renal; more than 100 µM with NCI/ADR-RES ovarian; 13 µM in the assay on MDA-MB-231 breast; more than 100 µM in the assay on OVCAR-4 ovarian. The molecule also yielded a TGI in the assay on PC-3 prostate of more than 100 µM.
